From patent publication US10681912B2, “Dispersion solution containing antibacterial ultrafine metal particles and method of producing the same” (TOYO SEIKAN GROUP HOLDINGS, LTD., priority 2013, dated 2020)

Test: SP values (solubility parameter)
Assay type: physicochemical
Settings: δ=(E/V)^1/2
From the text: The SP value has the same meaning as the solubility parameter, and serves as a rough indication of mixing property between the liquids. If the cohesive energy is denoted by E and the molar volume by V, then the SP value δ is given by δ=(E/V)^1/2.

For CC(=O)CC(C)C [Methylisobutyl ketone], the “SP Value” was 8.7.
